How the values were obtained:
P. berghei ANKA = assay: Four day suppressive test in P. berghei-infected mice; assay type: in vivo, P. berghei (BALB/c mice)
[1] = Experimental complexation with iron; assay type: binding; details: ligand–iron(III), stoichiometry 1, text
[2] = In vitro hemolysis on human red blood cells; assay type: cell-based; details: red blood cells (2% final suspension), % Haemolysis

CCN(CC)CCCC(C)Nc1ccnc2cc(Cl)ccc12 (stereo not shown) [CQ, chloroquine]
parasitemia reduction percentage (P. berghei ANKA; 20 mg kg^–1, day 4): 99.80% | %P, percentage of parasitemia (P. berghei ANKA; 20 mg kg^–1 for 4 days, day 4 post-infection, n = 6): 0.2% | binding constant [1]: about 6300 M^–1 | hemolysis at 45 min, 1 mM [2]: 7.4%
